This assay addresses triosephosphate isomerase from chicken muscle (cTIM), loop 6 replacement mutant (L6RM) (Gallus gallus, UniProt P00940, V167P/W168E). Kind of assay: steady-state kinetics of isomerization. It counts as biochemical.

SMILES strings stand for the structures.

Data on one molecule can be found in article PMC4051426 (Biochemistry, 2014).

Chain of triosephosphate isomerase from chicken muscle (cTIM), loop 6 replacement mutant (L6RM) (P00940 2-248 V167P/W168E): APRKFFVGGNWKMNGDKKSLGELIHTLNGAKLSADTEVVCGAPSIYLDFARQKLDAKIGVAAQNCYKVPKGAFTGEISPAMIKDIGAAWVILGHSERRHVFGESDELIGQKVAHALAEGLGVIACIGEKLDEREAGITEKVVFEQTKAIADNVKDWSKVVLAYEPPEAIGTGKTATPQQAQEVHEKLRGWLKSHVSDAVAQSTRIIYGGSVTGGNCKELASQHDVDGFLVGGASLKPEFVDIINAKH

`O=C[C@H](O)COP(=O)(O)O` [GAP, (R)-glyceraldehyde 3-phosphate]: the “kcat/Km (M^-1 s^-1)” value is listed as 470 M^–1 s^–1 (kcat/Km).
